Measurements taken from ChEMBL document CHEMBL3758085, “Synthesis and cytotoxicity of thieno[2,3-b]quinoline-2-carboxamide and cycloalkyl[b]thieno[3,2-e]pyridine-2-carboxamide derivatives” (Bioorg Med Chem, 2016).

Assays:
Assay type in all cases: functional
MDA-MB-231 = experiment: Antiproliferative activity against human MDA-MB-231 cells assessed as cell growth at 1 uM incubated for 3 days by 3H-thymidine incorporation assay relative to control; details: read-out: Activity
MDA-MB-468 = experiment: Antiproliferative activity against human MDA-MB-468 cells assessed as cell growth at 1 uM incubated for 3 days by 3H-thymidine incorporation assay relative to control; details: read-out: Activity
[1] = Antiproliferative activity against human HCT116 cells assessed as cell growth at 1 uM incubated for 3 days by 3H-thymidine incorporation assay relative to control; details: HCT-116, read-out: Activity

| SMILES | growth at 1 µM (MDA-MB-231) [%] | growth at 1 µM (MDA-MB-468) [%] | growth at 1 µM [1] [%] |
| --- | --- | --- | --- |
| Nc1c(C(=O)Nc2cccc3ccccc23)sc2nc3c(cc12)CCC3 | 80 | 67 | 92 |
| Nc1c(C(=O)Nc2ccc3ccccc3c2)sc2nc3c(cc12)CCCC3 | 120 | 76 | 100 |
| Cc1ccccc1NC(=O)c1sc2nc3c(cc2c1N)CCCCC3 | 43 | 25 | 66 |
| Nc1c(C(=O)Nc2ccc3ccccc3c2)sc2nc3c(cc12)CCCCC3 | 118 | 97 | 103 |
| Cc1ccc2nc3sc(C(=O)Nc4ccccc4C)cc3cc2c1 | 104 | 89 | 99 |
| Nc1c(C(=O)Nc2cccc([N+](=O)[O-])c2)sc2nc3c(cc12)CCC3 | 79 | 46 | 79 |
| COc1ccc(OC)c(NC(=O)c2sc3nc4c(cc3c2N)CCCCCC4)c1 | 131 | 94 | 107 |
| Nc1c(C(=O)Nc2c(Cl)cccc2Cl)sc2nc3c(cc12)CCCC3 | 93 | 82 | 100 |
| Nc1c(C(=O)Nc2ccccc2C(F)(F)F)sc2nc3c(cc12)CCCC3 | 128 | 93 | 104 |
| COc1ccc(NC(=O)c2sc3nc4ccccc4cc3c2N)cc1 | 101 | 68 | 97 |
| Nc1c(C(=O)Nc2cccc(Br)c2)sc2nc3c(cc12)CCCC3 | 101 | 45 | 85 |
| Nc1c(C(=O)Nc2cccc(C(F)(F)F)c2)sc2nc3c(cc12)CCCCC3 | 94 | 92 | 108 |
| COc1ccc(NC(=O)c2sc3nc4c(cc3c2N)CCCCCC4)cc1 | 107 | 84 | 106 |
| Nc1c(C(=O)Nc2ccc(F)cc2)sc2nc3c(cc12)CCCCCC3 | 100 | 65 | 82 |
| Cc1ccc(C)c(NC(=O)c2cc3cc4cc(C)ccc4nc3s2)c1 | 103 | 77 | 98 |
| Cc1ccc2nc3sc(C(=O)Nc4cccnc4)cc3cc2c1 | 81 | 101 | 102 |
| Nc1c(C(=O)Nc2cc(C(F)(F)F)ccc2Cl)sc2nc3c(cc12)CCCCC3 | 105 | 106 | 98 |
| Nc1c(C(=O)Nc2ccc(Cl)cc2)sc2nc3c(cc12)CCCCCC3 | 117 | 82 | 94 |
| COc1ccc2nc3sc(C(=O)Nc4cc(Cl)ccc4OC)c(N)c3cc2c1 | 86 | 104 | 100 |
| CCc1ccccc1NC(=O)c1sc2nc3c(cc2c1N)CCCC3 | 89 | 63 | 86 |
| Nc1c(C(=O)Nc2ccccc2Cl)sc2nc3c(cc12)CCCCC3 | 89 | 73 | 92 |
| Cc1ccc2cc3c(N)c(C(=O)Nc4ccccc4[N+](=O)[O-])sc3nc2c1 | 90 | 101 | 102 |
| COc1ccc(NC(=O)c2sc3nc4c(cc3c2N)CCCCCC4)cc1OC | 102 | 107 | 106 |
| Cc1cccc(NC(=O)c2cc3cc4cc(C)ccc4nc3s2)c1 | 105 | 84 | 100 |

| SMILES | growth at 1 µM (MDA-MB-231) [%] | growth at 1 µM (MDA-MB-468) [%] | growth at 1 µM [1] [%] |
| --- | --- | --- | --- |
| Cc1ccc2nc3sc(C(=O)Nc4cccc(F)c4)cc3cc2c1 | 103 | 91 | 98 |
| CC(=O)c1ccc(NC(=O)c2sc3nc4ccccc4cc3c2N)cc1 | 95 | 70 | 93 |
| Nc1c(C(=O)Nc2ccccc2C(F)(F)F)sc2nc3c(cc12)CCCCC3 | 124 | 100 | 112 |
| Nc1c(C(=O)Nc2cccc(C(F)(F)F)c2)sc2nc3c(cc12)CCC3 | 100 | 58 | 90 |
| Nc1c(C(=O)Nc2ccccc2)sc2nc3c(cc12)CCC3 | 90 | 76 | 94 |
| Nc1c(C(=O)Nc2ccc(Cl)c(Cl)c2)sc2nc3c(cc12)CCCCC3 | 115 | 77 | 103 |
| Nc1c(C(=O)Nc2ccccc2Cl)sc2nc3c(c(C(F)(F)F)c12)CCCCCC3 | 116 | 100 | 112 |
| CCOc1ccc2nc3sc(C(=O)Nc4ccc(Cl)cc4)c(N)c3cc2c1 | 97 | 93 | 100 |
| CC(=O)c1cccc(NC(=O)c2sc3nc4c(cc3c2N)CCCCCC4)c1 | 117 | 72 | 85 |
| Cc1cc(C)c(NC(=O)c2sc3nc4c(cc3c2N)CCCCC4)c(C)c1 | 98 | 89 | 99 |
| CCc1cccc(C)c1NC(=O)c1sc2nc3c(cc2c1N)CCCC3 | 84 | 67 | 96 |
| Nc1c(C(=O)Nc2cccc([N+](=O)[O-])c2)sc2nc3c(cc12)CCCC3 | 71 | 44 | 75 |
| Nc1c(C(=O)Nc2cccc(Cl)c2)sc2nc3c(cc12)CCC3 | 92 | 53 | 87 |
| Nc1c(C(=O)Nc2cccc(C(F)(F)F)c2)sc2nc3c(cc12)CCCC3 | 108 | 41 | 82 |
| Cc1ccc2cc3cc(C(=O)Nc4cnc5ccccc5c4)sc3nc2c1 | 97 | 87 | 99 |
| Nc1c(C(=O)Nc2ccccc2)sc2nc3c(c(-c4ccco4)c12)CCCCC3 | 89 | 71 | 65 |
| Nc1c(C(=O)Nc2cccc3ccccc23)sc2nc3c(cc12)CCCCC3 | 106 | 91 | 93 |
| Nc1c(C(=O)Nc2cccc(Br)c2)sc2nc3c(cc12)CCCCC3 | 92 | 45 | 83 |
| Cc1cc(C)c(NC(=O)c2sc3nc4c(cc3c2N)CCCC4)c(C)c1 | 97 | 93 | 101 |
| O=c1c2sc3ncccc3c2ncn1-c1ccccc1 | 107 | 101 | 96 |
| CCc1cccc(CC)c1NC(=O)c1sc2nc3c(cc2c1N)CCCC3 | 115 | 116 | 108 |
| Nc1c(C(=O)Nc2cccc([N+](=O)[O-])c2)sc2nc3c(cc12)CCCCC3 | 67 | 18 | 51 |
| COc1ccc(OC)c(NC(=O)c2sc3nc4c(cc3c2N)CCCCC4)c1 | 117 | 94 | 98 |
| Nc1c(C(=O)Nc2ccc3ccccc3c2)sc2nc3c(cc12)CCC3 | 81 | 64 | 94 |
